Laboratory results as given in patent US9718790B2, “Triazine derivative and pharmaceutical composition having an analgesic activity comprising the same” (SHIONOGI & CO., LTD., priority 2010, dated 2017).

Molecular target: human P2X3 receptor (Homo sapiens (Human), UniProt P56373)
Assay: Evaluation of human P2X3 receptor inhibitory activity (Fluo-3 calcium fluorescence, FDSS 3000, ATP stimulation);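 note: stimulus was 50 nM ATP with fluorescence followed for 3 min, and the response per well was peak post-ATP fluorescence divided by the reading at measurement start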
Type: cell-based
Details: C6BU-1 cells stably expressing human P2X3 receptor

human P2X3 receptor, sequence (P56373 whole entry): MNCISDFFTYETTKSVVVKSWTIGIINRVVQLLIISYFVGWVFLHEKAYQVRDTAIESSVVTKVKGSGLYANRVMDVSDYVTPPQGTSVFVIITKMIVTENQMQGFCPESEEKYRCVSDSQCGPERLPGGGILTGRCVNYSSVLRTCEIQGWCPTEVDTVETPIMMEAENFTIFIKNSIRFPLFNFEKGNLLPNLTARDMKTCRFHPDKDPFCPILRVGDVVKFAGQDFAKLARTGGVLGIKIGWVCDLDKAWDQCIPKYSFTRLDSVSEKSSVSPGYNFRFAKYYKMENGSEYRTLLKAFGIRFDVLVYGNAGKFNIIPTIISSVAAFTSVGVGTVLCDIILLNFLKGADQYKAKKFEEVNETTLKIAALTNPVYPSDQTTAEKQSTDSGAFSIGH

Compound | IC50
CC(C)Oc1ccc(/N=c2\[nH]c(=O)n(CCCN/C(=N\C#N)Oc3ccccc3)c(=O)n2Cc2ccc(Cl)cc2)cc1F [Compound I-0613] | 11 nM
Cc1ccc(Cn2c(=O)n([C@@H](C)[C@@H](C)C(=O)O)c(=O)[nH]/c2=N\c2ccc(OC3CCC3)c(C)c2)cc1 [Compound I-1408] | 16 nM
COc1cc(/N=c2\[nH]c(=O)n([C@@H](C)[C@@H](C)C(=O)O)c(=O)n2Cc2ccc(C)cc2)ccc1CC(C)C [Compound I-1367] | 14 nM
CNC(=O)Cn1c(=O)[nH]/c(=N\c2ccc(OCC3CC3)cc2)n(Cc2ccc(Cl)cc2)c1=O [Compound I-1942] | 49 nM
COC(=O)[C@@H](C)Cn1c(=O)[nH]/c(=N\c2cnc(OC3CCCC3)c(Cl)c2)n(Cc2ccc(C)cc2)c1=O [Compound I-1475] | 39 nM
CC[C@H](CC(=O)O)n1c(=O)[nH]/c(=N\c2ccc(OC(C)C)c(C)c2)n(Cc2ccc(Cl)cc2)c1=O [Compound I-0799] | 281 nM
CNC(=O)Cn1c(=O)[nH]/c(=N\c2ccc(OC3CCC3)cc2)n(Cc2ccc(Cl)cc2)c1=O [Compound I-1948] | 22 nM
CC(C)Oc1ccc(/N=c2\[nH]c(=O)n(C/C(N)=N/O)c(=O)n2Cc2ccc(Cl)cc2)cc1F [Compound I-0599] | 38 nM
CCCc1ccc(/N=c2\[nH]c(=O)n(C[C@H](C)C(=O)O)c(=O)n2Cc2ccc(C)cc2)cc1Cl [Compound I-1267] | 9 nM
CCOC(=O)CCn1c(=O)[nH]/c(=N\c2ccc(OC(C)C)c(F)c2)n(CC2CCCCCCC2)c1=O [Compound I-1911] | 253 nM
CCCCc1ccc(/N=c2\[nH]c(=O)n(C[C@H](C)C(=O)OC)c(=O)n2Cc2ccc(Cl)cc2)cc1 [Compound I-0620] | 44 nM
CCc1nc2ccc(/N=c3\[nH]c(=O)n(CCCCC(=O)OC)c(=O)n3Cc3ccc(C)cc3)cc2s1 [Compound I-2156] | 2 nM
CCn1c(=O)[nH]/c(=N\c2ccc(Oc3ccnc(C(=O)NC)c3)cc2)n(Cc2ccc(C)cc2)c1=O [Compound I-2013] | 3 nM
CCOC(=O)CC(C)(C)n1c(=O)[nH]/c(=N\c2ccc(OC(C)C)c(F)c2)n(Cc2ccc(Cl)cc2)c1=O [Compound I-0822] | 26 nM
COc1cc(/N=c2\[nH]c(=O)n(CC(CO)CO)c(=O)n2Cc2ccc(Cl)cc2)ccc1OC(C)C [Compound I-1985] | 11 nM
CC(C)Oc1ccc(/N=c2\[nH]c(=O)n(C[C@H](C)C(=O)O)c(=O)n2Cc2ccc(F)cc2)cc1F [Compound I-0637] | 69 nM
CCOC(=O)c1nc(Cn2c(=O)[nH]/c(=N\c3ccc(OC(C)C)c(C)c3)n(Cc3ccc(Cl)cc3)c2=O)cs1 [Compound I-0785] | 11 nM
CC1(C)OCC(Cn2c(=O)[nH]/c(=N\c3ccc(OC4CCC4)cc3)n(Cc3ccc(Cl)cc3)c2=O)CO1 [Compound I-1965] | 3 nM
CCCc1ccc(/N=c2\[nH]c(=O)n(C[C@H](C)C(=O)OC)c(=O)n2Cc2ccc(Cl)cc2)cc1C [Compound I-1211] | 30 nM
CC(C)(Cn1c(=O)[nH]/c(=N\c2ccc(OCC3CC3)cc2)n(Cc2ccc(Cl)cc2)c1=O)C(=O)O [Compound I-1263] | 25 nM
CC(C)Oc1ccc(/N=c2\[nH]c(=O)n(CCS(=O)(=O)O)c(=O)n2Cc2ccc(Cl)cc2)cc1F [Compound I-0654] | 26 nM
CCn1c(=O)[nH]/c(=N\c2ccc(Oc3cncc(C(=O)OC)c3)cc2)n(Cc2ccc(F)cc2)c1=O [Compound I-2111] | 44 nM
CNC(=O)Cn1c(=O)[nH]/c(=N\c2ccc(Oc3ccnc(C)c3)cc2)n(Cc2ccc(Cl)cc2)c1=O [Compound I-1927] | 7 nM
Cn1c(=O)[nH]/c(=N\c2ccc(Oc3cncc(C(=O)O)c3)cc2)n(Cc2ccc(Cl)cc2)c1=O [Compound I-2103] | 20 nM
O=c1[nH]/c(=N\c2ccc(OCC3CC3)cc2)n(Cc2ccc(Cl)cc2)c(=O)n1CCCO [Compound I-1917] | 23 nM
O=c1ccccn1-c1ccc(/N=c2\[nH]c(=O)n(CCOC3CCCCO3)c(=O)n2Cc2ccc(Cl)cc2)cc1 (stereo not shown) [Compound I-2040] | 23 nM
COC(=O)[C@@H](C)Cn1c(=O)[nH]/c(=N\c2cnc(OC3CCC3)c(Cl)c2)n(Cc2ccc(Cl)cc2)c1=O [Compound I-1399] | 50 nM
CCn1c(=O)[nH]/c(=N\c2ccc(OCC3(C(=O)O)CC3)cc2)n(Cc2ccc(Cl)cc2)c1=O [Compound I-2021] | 230 nM
CC(C)Oc1ccc(/N=c2\[nH]c(=O)n(Cc3cccn(C)c3=O)c(=O)n2Cc2ccc(Cl)cc2)cc1F [Compound I-0689] | 5 nM

Same assay, conditions: C6BU-1 cells stably expressing human P2X3 receptor, Fluo-3 fluorescence, FDSS 3000

Compound | IC50
CCc1oc2ccc(/N=c3\[nH]c(=O)n(CC(C)(C)C(=O)O)c(=O)n3Cc3ccc(Cl)cc3)cc2c1C [Compound I-1581] | 7 nM
COc1ccc(COc2cc(Cn3c(=O)[nH]/c(=N\c4ccc(OC(C)C)c(F)c4)n(Cc4ccc(Cl)cc4)c3=O)on2)cc1 [Compound I-1764] | 35 nM
C[C@@H](C(=O)O)[C@H](C)n1c(=O)[nH]/c(=N\c2ccc3c(c2)C(=O)CC3)n(Cc2ccc(Cl)cc2)c1=O [Compound I-1831] | 739 nM
CCC[C@H](C)Oc1ccc(/N=c2\[nH]c(=O)n(C[C@H](C)C(=O)OC)c(=O)n2Cc2ccc(C)cc2)cc1 [Compound I-1046] | 28 nM
Cc1ccc(Cn2c(=O)n(CCC(=O)O)c(=O)[nH]/c2=N\c2ncc(-c3ccccc3)s2)cc1 [Compound I-1725] | 953 nM
Cc1ccc(Cn2c(=O)n(CC(C)(C)C(=O)O)c(=O)[nH]/c2=N\c2ccc3nc(C)sc3c2)cc1 [Compound I-1577] | 7 nM
C[C@@H](Oc1ccc(/N=c2\[nH]c(=O)n(C[C@H](O)CO)c(=O)n2Cc2ccc(Cl)cc2)cc1)C(F)(F)F [Compound I-1845] | 33 nM
CCCOc1ccc(/N=c2\[nH]c(=O)n(C[C@@H](C)C(=O)O)c(=O)n2Cc2ccc(Cl)cc2)cc1 [Compound I-1035] | 65 nM
Cc1nc2ccc(/N=c3\[nH]c(=O)n(C[C@H](O)CO)c(=O)n3Cc3ccc(Cl)cc3)cc2s1 [Compound I-1618] | 8 nM
Cc1ccc(Cn2c(=O)n(C[C@H](C)C(=O)O)c(=O)[nH]/c2=N\c2ccc(N3CCCCC3)cc2)cc1 [Compound I-1093] | 38 nM
CC(C)Oc1ccc(/N=c2\[nH]c(=O)n(CC(CO)(CO)C(=O)O)c(=O)n2Cc2ccc(Cl)cc2)cc1Cl [Compound I-1012] | 51 nM
CCOc1ccc(/N=c2\[nH]c(=O)n(CC3(C(=O)O)CC3)c(=O)n2Cc2ccc(Cl)cc2)cc1Cl [Compound I-0924] | 30 nM
CCCCCOc1ccc(/N=c2\[nH]c(=O)n(CCC(=O)O)c(=O)n2Cc2ccc(C)cc2)cc1 [Compound I-1072] | 252 nM
CCOC(=O)CCn1c(=O)[nH]/c(=N\c2ccc(OCC3CC3)c(Cl)c2)n(Cc2ccc(C)cc2)c1=O [Compound I-0957] | 25 nM
Cc1ccc(Cn2c(=O)n(CCC(=O)O)c(=O)[nH]/c2=N\c2cn(C)nc2C(=O)NC(C)C)cc1 [Compound I-1839] | 107 nM
COC(=O)[C@@H](C)Cn1c(=O)[nH]/c(=N\c2ccc(O[C@@H](C)C(F)(F)F)cc2)n(Cc2ccc(Cl)cc2)c1=O [Compound I-0943] | 61 nM
C[C@@H](C(=O)O)[C@H](C)n1c(=O)[nH]/c(=N\c2ccc3nc(-c4ccccc4)sc3c2)n(Cc2ccc(Cl)cc2)c1=O [Compound I-1829] | 92 nM
CCc1nc2ccc(/N=c3\[nH]c(=O)n(CCNC(C)=O)c(=O)n3Cc3ccc(Cl)cc3)cc2s1 [Compound I-1612] | 5 nM

Same assay, conditions: human P2X3 receptor, Test Example 1

Compound | IC50
CCc1nc2ccc(/N=c3\[nH]c(=O)n(CCC(=O)O)c(=O)n3Cc3ccc(Cl)cc3)cc2s1 [Compound I-1509] | 14 nM
COC(=O)/C=C/c1cccc(Oc2ccc(/N=c3\[nH]c(=O)n(C)c(=O)n3Cc3ccc(C)cc3)cc2)c1 [Compound I-2328] | 34 nM
Cn1c(=O)[nH]/c(=N\c2ccc(Oc3ncc(C(N)=O)s3)cc2)n(Cc2ccc(Cl)cc2)c1=O [Compound I-2414] | 3 nM
Cn1c(=O)[nH]/c(=N\c2ccc(Oc3ccc(C(=O)O)cn3)cc2)n(Cc2ccc(Cl)cc2)c1=O [Compound I-2442] | 18 nM
CNC(=O)CCn1c(=O)[nH]/c(=N\c2ccc(Oc3ccon3)cc2)n(Cc2ccc(Cl)cc2)c1=O [Compound I-2527] | 26 nM
CCOC(=O)CN(C(=O)OC(C)(C)C)c1cc(Oc2ccc(/N=c3\[nH]c(=O)n(CC)c(=O)n3Cc3ccc(Cl)cc3)cc2)ccn1 [Compound I-2540] | 104 nM
Cc1ccc(Cn2c(=O)n(C[C@H](C)C(=O)O)c(=O)[nH]/c2=N\c2ccc(OC3CC3)cc2)cc1 [Compound I-1516] | 49 nM
CCn1c(=O)[nH]/c(=N\c2ccc(Oc3cccc(C(N)=O)n3)cc2)n(C[C@H]2CC[C@H](C)CC2)c1=O [Compound I-2497] | 1 nM
Cc1ccc(Cn2c(=O)n(C[C@H](O)CO)c(=O)[nH]/c2=N\c2ccc(Oc3ccon3)cc2)cc1 [Compound I-2510] | 10 nM
COc1ccc(Oc2ccc(/N=c3\[nH]c(=O)n(CCC(=O)O)c(=O)n3Cc3ccc(Cl)cc3)cc2)cn1 [Compound I-1533] | 16 nM
COC(=O)[C@@H](C)Cn1c(=O)[nH]/c(=N\c2ccc(OCC3CC3)cc2)n(Cc2ccc(Cl)cc2)c1=O [Compound I-0833] | 15 nM
Cc1cccc(Oc2ccc(/N=c3\[nH]c(=O)n(CC(CO)CO)c(=O)n3Cc3ccc(Cl)cc3)cc2)n1 [Compound I-2610] | 12 nM
CCn1c(=O)[nH]/c(=N\c2ccc(Oc3cccc(C#N)n3)cc2)n(C[C@H]2CC[C@H](C)CC2)c1=O [Compound I-2494] | 1 nM
Cc1ccc(Cn2c(=O)n(CC3(C(=O)O)COC3)c(=O)[nH]/c2=N\c2ccc(CC(C)C)c(Cl)c2)cc1 [Compound I-1496] | 9 nM
O=c1[nH]/c(=N\c2ccc(Oc3cccc(F)n3)cc2)n(Cc2ccc(Cl)cc2)c(=O)n1C[C@@H](O)CO [Compound I-2525] | 10 nM
Cn1c(=O)[nH]/c(=N\c2ccc(Oc3ccon3)cc2)n(Cc2ccc(Cl)cc2)c1=O [Compound I-2356] | 24 nM
Cn1c(=O)[nH]/c(=N\c2ccc(Oc3ccc(C(N)=O)nn3)cc2)n(Cc2ccc(Cl)cc2)c1=O [Compound I-2379] | 9 nM
